Ten molecules from BindingDB's records for doi:10.1021/acs.jmedchem.7b01709 (Kobe Gakuin University, 2018) can be followed below.

By EC50 is commonly meant the concentration that produces a half-maximal response.

A short description of the first assay: Inhibition of DRV-resistant protease V32I/L33F/I54M/I84V mutant in HIV1 transfected in 293T cells after 48 hrs by lentiviral vector-based luciferase reporter gene assay. (In a reporter assay the amount or activity of a reporter protein is the signal.)
As to `COc1cccc2cc(C(=O)N[C@H](C(=O)N[C@@H](Cc3ccccc3)[C@H](O)C(=O)N3CSC(C)(C)[C@H]3C(=O)NCc3c(C)cccc3C)[C@H]3CCOC3)oc12`, the EC50 stood at 1.2 nM.

The nature of a further assay: Inhibition of DRV-resistant protease V32I/L33F/I54M/V82I mutant in HIV1 transfected in 293T cells after 48 hrs by lentiviral vector-based luciferase reporter gene assay.
As for `COc1cccc2cc(C(=O)N[C@H](C(=O)N[C@@H](Cc3ccccc3)[C@H](O)C(=O)N3CSC(C)(C)[C@H]3C(=O)NCc3c(C)cccc3C)[C@H]3CCOC3)oc12`, it took 0.3 nM to reach a half-maximal effect (EC50).

The nature of a further assay: Inhibition of protease L10F/V32I/M46I/I47V/Q58E/I84V mutant in HIV1 A17 infected in human MT4 cells assessed as reduction in virus-induced cytopathic effect after 5 days by MTT assay. In general terms: Cytopathic effects are the visible damage that an infection or toxin causes in cultured cells.
Take `Cc1cccc(C)c1CNC(=O)[C@H]1N(C(=O)[C@@H](O)[C@H](Cc2ccccc2)NC(=O)[C@@H](NC(=O)c2cc3ccccc3o2)[C@H]2CCOC2)CSC1(C)C`: the EC50 was found to be 678 nM.

`Cc1cccc(C)c1CNC(=O)[C@H]1N(C(=O)[C@@H](O)[C@H](Cc2ccccc2)NC(=O)[C@@H](NC(=O)c2cc3ccccc3o2)C(C)C)CSC1(C)C`: the EC50 is 1100 nM.

Regarding `Cc1cccc(C)c1CNC(=O)[C@H]1N(C(=O)[C@@H](O)[C@H](Cc2ccccc2)NC(=O)[C@@H](NC(=O)COc2cccc(N(C)C)c2)[C@H]2CCOC2)CSC1(C)C`, the EC50 is 165 nM.

With `Cc1cccc(C)c1CNC(=O)[C@H]1N(C(=O)[C@@H](O)[C@H](Cc2ccccc2)NC(=O)[C@H](CC(N)=O)NC(=O)c2cc3ccccc3o2)CSC1(C)C`, the EC50 worked out at 61 nM.

As to `Cc1ccccc1CNC(=O)[C@H]1N(C(=O)[C@@H](O)[C@H](Cc2ccccc2)NC(=O)[C@@H](NC(=O)c2cnc3ccccc3n2)[C@H]2CCOC2)CSC1(C)C`, the EC50 is 95 nM.

For `Cc1cccc(C)c1CNC(=O)[C@H]1N(C(=O)[C@@H](O)[C@H](Cc2ccccc2)NC(=O)[C@@H](NC(=O)COc2cccc(Nc3ccccc3)c2)[C@H]2CCOC2)CSC1(C)C`, the half-maximal effective concentration (EC50) was found to be 226 nM.

With `COc1cccc2cc(C(=O)N[C@H](C(=O)N[C@@H](Cc3ccccc3)[C@H](O)C(=O)N3CSC(C)(C)[C@H]3C(=O)NCc3c(C)cccc3C)[C@H]3CCOC3)oc12`, the half-maximal effective concentration (EC50) is 25 nM.

Take `COc1cccc2cc(C(=O)N[C@@H](CC(N)=O)C(=O)N[C@@H](Cc3ccccc3)[C@H](O)C(=O)N3CSC(C)(C)[C@H]3C(=O)NCc3c(C)cccc3C)oc12`: the EC50 stood at 84 nM.

For the molecule `COc1cccc2cc(C(=O)N[C@H](C(=O)N[C@@H](Cc3ccccc3)[C@H](O)C(=O)N3CSC(C)(C)[C@H]3C(=O)NCc3c(C)cccc3C)C(C)C)oc12`, the EC50 was 309 nM.

For `Cc1ccccc1CNC(=O)[C@H]1N(C(=O)[C@@H](O)[C@H](Cc2ccccc2)NC(=O)c2cccc(O)c2C)CSC1(C)C` [AG1776], the EC50 amounted to 2730 nM.
